Data on nine molecules can be found in patent publication US9493727B2 (priority 2010, dated 2016).

Values joined by “and” are separate entries in the source; they are usually repeats but may differ in a detail not shown here. Equal values may be shown once.

Data set [1] is classed as physicochemical.

In the case of `C[N+](C)([O-])CCCNC(=O)CCCCCCC/C=C/CCCCCCCC(=O)NCCC[N+](C)(C)[O-]` [Mix-29, C18 DiDMAPA DiAO], the “Adjuvant 1 h, emulsion stability, mL separation” value (from here on “Adjuvant 1 h, emulsion stability”) is given as 0 mL; the “Anionic 1 h, emulsion stability, mL separation” value (shortened to “Anionic 1 h, emulsion stability”) is 0 mL; the “Nonionic 1 h, emulsion stability, mL separation” value (shortened to “Nonionic 1 h, emulsion stability”) was found to be 0 mL; the “Adjuvant 24 h, emulsion stability, mL separation” value (“Adjuvant 24 h, emulsion stability” below) stood at 0 mL. Also, the “Anionic 24 h, emulsion stability, mL separation” value (shortened to “Anionic 24 h, emulsion stability”) turned out to be 0 mL.
Take `CN(C)CCCNC(=O)CCCCCCCCC(CCCCCCCC(=O)NCCCN(C)C)S(=O)(=O)[O-].[Na+]` (centres unmarked) [Sample C18-68, C18 diDMAPA Amide Sulfonate]: the “Adjuvant 1 h, emulsion stability” value turned out to be 0 mL; the “Anionic 1 h, emulsion stability” value is recorded as 0 mL; the “Adjuvant 24 h, emulsion stability” value is 0 mL; the “Anionic 24 h, emulsion stability” value is 0 mL.
As for `C[N+](C)([O-])CCCNC(=O)CCCCCCCCC(CCCCCCCC(=O)NCCC[N+](C)(C)[O-])S(=O)(=O)[O-].[Na+]` (centres unmarked) [Sample C18-30, C18 DiDMAPA DiAO Sulfonate], the “Adjuvant 1 h, emulsion stability” value was determined as 0 mL; the “Anionic 1 h, emulsion stability” value was 0 mL; the “Adjuvant 24 h, emulsion stability” value is on record as 0 mL; the “Anionic 24 h, emulsion stability” value amounted to 0 mL. Further, the “% Separation 1 h (C = cream)” value in data set [1] is 3.9 C % and 3.1 C %. Moreover, in data set [1] (24 h), the “% Separation 24 h (C = cream)” value is 3.5 C, 0.5 O % and 3.6 C %; the “% Separation 24 h (O = oil separated)” value was 3.5 C, 0.5 O %.
In the case of `CCCC(CCCCCCCC(=O)NCCC[N+](C)(C)[O-])S(=O)(=O)[O-].[Na+]` (centres unmarked) [Sample C12-21, C12 DMAPA AO Sulfonate], the “Adjuvant 1 h, emulsion stability” value is 0 mL; the “Anionic 1 h, emulsion stability” value came to 0 mL; the “Adjuvant 24 h, emulsion stability” value is recorded as 0 mL; the “Anionic 24 h, emulsion stability” value worked out at 0 mL.
For C16 DMAPA Sulfonate AO [Sample C16-12], the “Adjuvant 1 h, emulsion stability” value was determined as 0 mL; the “Anionic 1 h, emulsion stability” value was 0 mL; the “Nonionic 1 h, emulsion stability” value is listed as 0.4 mL; the “Adjuvant 24 h, emulsion stability” value is 0 mL. Also, the “Anionic 24 h, emulsion stability” value amounted to 0 mL and the “Nonionic 24 h, emulsion stability, mL separation” value was 0.5 mL.
Turning to `CCCCCCCC(CCCCCCCC(=O)NCCCN(C)C)S(=O)(=O)[O-].[Na+]` (centres unmarked) [Sample C16-11, C16-DMAPA Sulfonate], the “% Separation 1 h (C = cream)” value in data set [1] was 3.1 C % and 2.8 C %. The “% Separation 24 h (C = cream)” value in data set [1] (24 h) was 4 C % and 3.6 C %.
As for `C=CCCCCCCCC(=O)NCCC[N+](C)(C)[O-]` [Sample C10-20, C10 DMAPA AO], the “Adjuvant 1 h, emulsion stability” value is on record as 0 mL; the “Anionic 1 h, emulsion stability” value is 0 mL; the “Nonionic 1 h, emulsion stability” value came out at 1 mL; the “Adjuvant 24 h, emulsion stability” value is listed as 0 mL. Moreover, the “Anionic 24 h, emulsion stability” value is reported as 0 mL and the “Nonionic 24 h, emulsion stability, mL separation” value turned out to be 1 mL.
As to `CN(C)CCCNC(=O)CCCCCCC/C=C/CCCCCCCC(=O)NCCCN(C)C` [Mix-26, C18 DiDMAPA Amide], the “Anionic 1 h, emulsion stability” value came to 0 mL and the “Anionic 24 h, emulsion stability” value was 0 mL.
In the case of `CCCC(CCCCCCCC(=O)NCCCN(C)C)S(=O)(=O)[O-].[Na+]` (centres unmarked) [Sample C12-42, C12 DMAPA Sulfonate], the “% Separation 1 h (C = cream)” value in data set [1] stood at 3 C %. Besides, the “% Separation 24 h (C = cream)” value in data set [1] (24 h) was 3.1 C % and 3.3 C %.
